pIC50: −log10 of the molar value. Where a name gives a salt, the structure may show the parent alone. Read-outs that look alike come from different tables or passages of the source.
Legend:
[1] = tested on: P388 murine leukemia cells; assay: inhibition of growth rate of P388 cells; assay type: cell-based; conditions: Mus musculus
From the text: (§1) Such cancer cells are characterized by the fact that they are resistant to a large variety of anti-tumour agents and thus become extremely and increasingly difficult to treat. […] Such properties can be tested according to the method described in Br. J.

[2] = tested on: adriamycin-resistant subline (P388/ADR); assay: inhibition of growth rate of adriamycin-resistant subline P388/ADR; assay type: cell-based, murine; conditions: P388/ADR cells, compound alone, read-out: B: IC50 for the adriamycin-resistant subline (P388/ADR)
From the text: Such cancer cells are characterized by the fact that they are resistant to a large variety of anti-tumour agents and thus become extremely and increasingly difficult to treat. The compounds of formula I, including those described in British Patent Specification No. 883013, and salts thereof lower this resistance and thus greatly increase the effectiveness of drugs conventionally used in chemotherapy. Such properties can be tested according to the method described in Br. J. […] The Table which follows sets forth for a representative number of compounds of formula I B: the IC50 for the adriamycin-resistant subline (P388/ADR); and […]

P388/ADR cells = assay: inhibition of P388/ADR cells in the presence of a subtoxic concentration of adriamycin (restoring drug sensitivity); assay type: cell-based, murine; conditions: Mus musculus
From the text: as §1

[3] = toxicity, LD50 i.p. after administration of a single dose to mice; conditions: mouse, in vivo, ip, read-out: T: toxicity, LD50
From the text: For some of these compounds, the Table also contains toxicity data ("T", LD50, mg/kg i.p. after administration of a single dose to mice).

[4] = P388 cells, compound alone, read-out: A: concentration for inhibiting the growth rate of P388 cells by 50% (IC50)
[5] = P388/ADR cells, with adriamycin 0.2 μM, read-out: C: IC50 for P388/ADR cells, measured in the presence of a subtoxic concentration of adriamycin
[6] = P388, read-out: A: concentration for inhibiting the growth rate of P388 cells by 50% (IC50), P388 cells, compound alone
[7] = P388/ADR, read-out: C: IC50 for P388/ADR cells, measured in the presence of a subtoxic concentration of adriamycin, P388/ADR cells, with adriamycin 0.2 μM

Row | SMILES | pIC50 [1, 4] | pIC50 ([2]; Mus musculus, P388/ADR) | pIC50 (P388/ADR cells; [5]) | pIC50 [1, 6] | pIC50 (P388/ADR cells; [7]) | LD50 [3] | pIC50 ([2]; dihydrochloride)
1 | CCC(C(=O)OCCN1CCN(CCOC(=O)C(CC)c2ccccc2F)CC1)c1ccccc1F (centres unmarked) [Compound 1775, N,N'-bis[2-[2-(2-fluorophenyl)-2-ethylacetoxy]ethyl]piperazine dihydrochloride] | 4.22 | 4.22 | 5.82 |  |  |  | 
2 | CCC(C(=O)OCCCN1CCN(CCCOC(=O)C(CC)c2ccccc2)CC1)c1ccccc1 (centres unmarked) [Compound 1843, N,N'-bis[3-(2-phenyl-2-ethylacetoxy)propyl]piperazine] | 5.15 | 5.10 | 6.35 |  |  |  | 
3 | CCC(C(=O)OCCN1CCN(CCOC(=O)C(CC)c2ccc(Cl)cc2)CC1)c1ccc(Cl)cc1 (centres unmarked) [Compound 1778, N,N'-bis[2-[2-(4-chlorophenyl)-2-ethylacetoxy]ethyl]piperazine dihydrochloride] | 4.52 | 4.70 | 6.00 |  |  |  | 
4 | Cc1cccc(C)c1NC(=O)CCN1CCN(CCOC(=O)C(c2ccccc2)c2ccccc2)CC1 [Compound 1853, 3-[1-(2-diphenylacetoxyethyl)-4-piperazino]propion-2,6-dimethylanilide dihydrochloride] | 4.22 | 4.22 | 5.92 |  |  |  | 
5 | CCC(C(=O)OCCN1CCN(CCOC(=O)C(CC)c2ccc(F)cc2)CC1)c1ccc(F)cc1 (centres unmarked) [Compound 1777, N,N'-bis[2-[2-(4-fluorophenyl)-2-ethylacetoxy]ethyl]piperazine dihydrochloride] | 4.22 | 4.22 | 5.92 |  |  |  | 
6 | CCC(C(=O)OCCN1CCN(CCOC(=O)C(CC)c2ccc(OC)c(OC)c2)CC1)c1ccc(OC)c(OC)c1.Cl.Cl (centres unmarked) [Compound 1835, N,N'-bis[2-[2-(3,4-dimethoxyphenyl)-2-ethylacetoxy]ethyl]piperazine dihydrochloride] |  | 3.92 |  | 3.92 | 5.92 | ~200 mg/kg | 
7 | CCCC(C(=O)OCCN1CCN(CCOC(=O)C(CCC)c2ccccc2)CC1)c1ccccc1 (centres unmarked) [Compound 1838, N,N'-bis[2-(2-n-propyl-2-phenylacetoxy)ethyl]piperazine] |  | 4.70 |  | 4.70 | 6.70 | 200 to 400 mg/kg | 
8 | CCCC(C(=O)OCCN1CCN(CCOC(=O)C(CCC)c2ccc(OC)c(OC)c2)CC1)c1ccc(OC)c(OC)c1 (centres unmarked) [Compound 1850, N,N'-bis[2-[2-(3,4-dimethoxyphenyl)-2-propylacetoxy]ethyl]piperazine dihydrochloride] | 4.70 | 4.70 | 6.70 |  |  |  | 
9 | CCC(C(=O)OCCN1CCN(CCC(=O)Nc2c(C)cccc2C)CC1)c1ccccc1 (centres unmarked) [Compound 1774, 3-[1-(2-Phenyl-2-ethylacetoxy)ethyl-4-piperazino]propion-2,6-dimethylanilide dihydrochloride] |  | < 4.22 |  | < 4.22 | 5.92 | ~200 mg/kg | 
10 | CC(C(=O)OCCN1CCN(CCOC(=O)C(C)(c2ccccc2)c2ccccc2)CC1)(c1ccccc1)c1ccccc1 [Compound 1854, N,N'-bis[2-(2,2-diphenyl-2-methylacetoxy)ethyl]piperazine dihydrochloride] | 4.70 | 4.35 | 6.70 |  |  |  | 
11 | O=C(OCCN1CCN(CCOC(=O)C(c2ccccc2)c2ccccc2)CC1)C(c1ccccc1)c1ccccc1 [Compound 1839, N,N'-bis(2-diphenylacetoxyethyl)piperazine] |  | < 4.22 |  | < 4.22 | 6.70 | 200 to 400 mg/kg | 
12 | CCC(C(=O)OCCN1CCN(CCOC(=O)C(CC)c2ccccc2Cl)CC1)c1ccccc1Cl (centres unmarked) [Compound 1779, N,N'-bis[2-[2-(2-chlorophenyl)-2-ethylacetoxy]ethyl]piperazine dihydrochloride] | 4.22 | 4.40 | 6.00 |  |  |  | 
13 | CCC(C(=O)OCCN1CCN(CCOC(=O)C(CC)c2ccccc2)CC1)c1ccccc1.Cl.Cl (centres unmarked) [Compound 480, N,N'-bis[2-(2-phenyl-2-ethylacetoxy)ethyl]piperazine dihydrochloride] |  | 4.22 |  |  |  | 100 to 200 mg/kg | 4.35
14 | CCC(C(=O)OCCN1CCN(CCOC(=O)C(CC)c2ccccc2C)CC1)c1ccccc1C.Cl.Cl (centres unmarked) [Compound 1776, N,N'-bis[2-[2-(2-methylphenyl)-2-ethylacetoxy]ethyl]piperazine dihydrochloride] |  | 4.52 |  | 4.52 | 6.10 | 200 to 400 mg/kg | 
15 | CCCCC(C(=O)OCCN1CCN(CCOC(=O)C(CCCC)c2ccc(OC)c(OC)c2)CC1)c1ccc(OC)c(OC)c1 (centres unmarked) [Compound 1849, N,N'-bis[2-[2-n-butyl-2-(3,4-dimethoxyphenyl)acetoxy]ethyl]piperazine dihydrochloride] | 4.92 | 5.00 | 6.70 |  |  |  | 

Source: patent US5190946A, “Methods and compounds” (Hoffmann-La Roche Inc., priority 1990, dated 1993)
